Measurements taken from ChEMBL document CHEMBL2412999, “Anticonvulsant properties of histamine H3 receptor ligands belonging to N-substituted carbamates of imidazopropanol” (Bioorg Med Chem Lett, 2013).
Active and inactive are the calls of the source. The calls are words filed in the database; no cut-off is given here.

Experiments:
Rattus norvegicus [1] = test: Anticonvulsant activity in Wistar rat assessed as protection against maximum electric shock-induced tonic hind limb extension at 10 mg/kg, ip; assay type: functional, organism-based; design: dose 10 mg/kg; conditions: Hindlimb
Histamine H4 receptor = Histamine H4 receptor (Homo sapiens, UniProt Q9H3N8); test: Displacement of [3H]histamine from human histamine H4 receptor expressed in Sf9 cells co-expressing Gai2 and Gb1c2 subunit
Histamine H4 receptor, sequence (Q9H3N8 whole entry): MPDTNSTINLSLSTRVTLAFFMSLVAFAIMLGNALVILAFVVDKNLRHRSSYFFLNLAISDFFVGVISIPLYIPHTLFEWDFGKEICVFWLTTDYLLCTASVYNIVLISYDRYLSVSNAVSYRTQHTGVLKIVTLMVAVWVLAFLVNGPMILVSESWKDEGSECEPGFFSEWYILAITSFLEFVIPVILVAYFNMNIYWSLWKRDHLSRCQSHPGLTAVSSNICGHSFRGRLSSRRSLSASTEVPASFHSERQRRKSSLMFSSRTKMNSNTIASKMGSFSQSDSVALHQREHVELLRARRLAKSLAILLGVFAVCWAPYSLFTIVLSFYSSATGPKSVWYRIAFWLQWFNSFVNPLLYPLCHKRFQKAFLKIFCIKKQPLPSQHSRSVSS

[2] = molecular target: Histamine H2 receptor (Cavia porcellus) (UniProt P47747); test: Antagonist activity at histamine H2 receptor in guinea pig atrium; conditions: Cardiac atrium
Histamine H2 receptor (Cavia porcellus), sequence (P47747 whole entry): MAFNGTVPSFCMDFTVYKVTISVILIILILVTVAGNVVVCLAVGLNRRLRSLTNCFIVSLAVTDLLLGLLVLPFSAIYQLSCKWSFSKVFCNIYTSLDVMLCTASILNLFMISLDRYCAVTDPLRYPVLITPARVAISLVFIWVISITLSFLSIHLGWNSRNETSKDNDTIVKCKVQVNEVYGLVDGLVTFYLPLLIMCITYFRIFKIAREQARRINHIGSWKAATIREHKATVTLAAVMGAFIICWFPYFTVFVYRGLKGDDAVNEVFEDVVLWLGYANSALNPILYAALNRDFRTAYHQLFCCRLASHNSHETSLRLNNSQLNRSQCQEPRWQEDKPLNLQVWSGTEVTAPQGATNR

Mus musculus = test: In vivo inhibition of histamine H3 receptor in po dosed mouse assessed as Nt-methylhistamine level in brain; assay type: functional
Histamine H3 receptor = Histamine H3 receptor (Homo sapiens, UniProt Q9Y5N1); test: Displacement of [125I]iodoproxyfan from human histamine H3 receptor expressed in CHO-K1 cells; assay type: cell-based
Histamine H3 receptor, sequence (Q9Y5N1 whole entry): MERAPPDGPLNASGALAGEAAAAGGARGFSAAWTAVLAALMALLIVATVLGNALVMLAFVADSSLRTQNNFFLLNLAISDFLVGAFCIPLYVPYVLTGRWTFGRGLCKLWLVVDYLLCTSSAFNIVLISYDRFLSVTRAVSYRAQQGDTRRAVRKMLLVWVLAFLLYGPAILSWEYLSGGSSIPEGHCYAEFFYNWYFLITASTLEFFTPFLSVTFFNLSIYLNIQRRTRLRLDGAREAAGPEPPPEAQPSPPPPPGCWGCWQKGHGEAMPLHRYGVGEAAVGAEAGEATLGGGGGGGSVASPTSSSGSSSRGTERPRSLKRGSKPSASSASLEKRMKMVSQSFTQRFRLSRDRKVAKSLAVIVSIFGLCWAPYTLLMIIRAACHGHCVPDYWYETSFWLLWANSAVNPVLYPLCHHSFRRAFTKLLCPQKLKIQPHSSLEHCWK

[3] = molecular target: Histamine H1 receptor (Cavia porcellus) (UniProt P31389); test: Antagonist activity at histamine H1 receptor in guinea pig ileum; assay type: tissue-based
Histamine H1 receptor (Cavia porcellus), sequence (P31389 whole entry): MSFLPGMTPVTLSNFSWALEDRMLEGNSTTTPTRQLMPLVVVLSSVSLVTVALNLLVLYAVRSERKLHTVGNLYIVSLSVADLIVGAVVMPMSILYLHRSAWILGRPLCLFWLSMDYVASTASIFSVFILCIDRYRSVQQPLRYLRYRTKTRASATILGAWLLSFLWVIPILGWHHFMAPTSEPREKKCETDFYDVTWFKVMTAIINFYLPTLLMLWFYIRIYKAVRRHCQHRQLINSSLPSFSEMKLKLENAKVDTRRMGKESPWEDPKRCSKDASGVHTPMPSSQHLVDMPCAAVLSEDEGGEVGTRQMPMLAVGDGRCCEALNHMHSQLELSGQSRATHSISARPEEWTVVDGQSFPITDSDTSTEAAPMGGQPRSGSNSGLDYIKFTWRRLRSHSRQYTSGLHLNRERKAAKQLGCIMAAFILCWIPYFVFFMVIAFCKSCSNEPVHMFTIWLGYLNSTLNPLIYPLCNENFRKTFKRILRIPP

Rattus norvegicus [4] = test: Anticonvulsant activity in Wistar rat assessed as protection against pentylenetetrazole-induced seizure at 10 mg/kg, ip after 30 mins; assay type: functional, organism-based; design: dose 10 mg/kg
Rattus norvegicus [5] = test: Anticonvulsant activity in Wistar rat assessed as protection against maximum electric shock-induced tonic hind limb extension at 5 mg/kg, ip; assay type: functional, organism-based; design: dose 5 mg/kg; conditions: Hindlimb
Rattus norvegicus [6] = test: Anticonvulsant activity in Wistar rat assessed as protection against maximum electric shock-induced tonic hind limb extension at 10 to 15 mg/kg, ip; assay type: functional, organism-based; conditions: Hindlimb
Rattus norvegicus [7] = test: Anticonvulsant activity in Wistar rat assessed as protection against pentylenetetrazole-induced seizure at 10 mg/kg, ip after 5 to 10 mins; assay type: functional, organism-based; design: dose 10 mg/kg
Rattus norvegicus [8] = test: Anticonvulsant activity in Wistar rat assessed as protection against maximum electric shock-induced tonic hind limb extension at 10 mg/kg, ip in presence of histamine H1R antagonist pyrilamine; assay type: functional, organism-based; design: dose 10 mg/kg; conditions: Hindlimb
Rattus norvegicus [9] = test: Anticonvulsant activity in Wistar rat assessed as protection against maximum electric shock-induced tonic hind limb extension at 10 mg/kg, ip in presence of histamine H3R agonist RAMH; assay type: functional, organism-based; design: dose 10 mg/kg; conditions: Hindlimb
Rattus norvegicus [10] = test: Anticonvulsant activity in Wistar rat assessed as protection against maximum electric shock-induced tonic hind limb extension at 15 mg/kg, ip; assay type: functional, organism-based; design: dose 15 mg/kg; conditions: Hindlimb
Rattus norvegicus [11] = test: Anticonvulsant activity in ip dosed Wistar rat assessed as protection against maximum electric shock-induced tonic hind limb extension; assay type: functional, organism-based; conditions: Hindlimb

SMILES	Activity (Rattus norvegicus [1])	Ki (Histamine H4 receptor) [nM]	pKb [2]	Ki (Histamine H3 receptor) [nM]	pKb [3]	also measured
O=C(NCCCOc1ccccc1)OCCCc1c[nH]cn1	Active	> 100000	4.26	1290	4.34	ED50 (Mus musculus): 4.1 mg/kg
O=C(NCCCCOc1ccccc1)OCCCc1c[nH]cn1	–	> 100000	4.78	1050	4.27	ED50 (Mus musculus): 5.8 mg/kg
O=C1NC(=O)C(c2ccccc2)(c2ccccc2)N1	Active	–	–	–	–	Activity (Rattus norvegicus [4]): Active; Activity (Rattus norvegicus [5]): inactive; Activity (Rattus norvegicus [6]): Active
O=C(NCCC1CC1)OCCCc1c[nH]cn1	–	1550	3.5	170	3.8	–
CC/C=C/CCNC(=O)OCCCc1c[nH]cn1	–	13200	–	257	–	–
C[C@@H](N)Cc1c[nH]cn1	inactive	–	–	–	–	–
C=CCCNC(=O)OCCCc1c[nH]cn1	Active	3800	< 4	–	< 4	Activity (Rattus norvegicus [6]): Active
CCC(C)CCNC(=O)OCCCc1c[nH]cn1 (stereo not drawn)	Active	1230	–	129	–	Activity (Rattus norvegicus [6]): Active; ED50 (Mus musculus): 2 mg/kg
O=C(NCCOc1ccccc1Cl)OCCCc1c[nH]cn1	Active	16200	–	708	–	ED50 (Mus musculus): 2.2 mg/kg
C=CCCCNC(=O)OCCCc1c[nH]cn1	Active	41700	3.6	141	3.9	Activity (Rattus norvegicus [7]): Active; Activity (Rattus norvegicus [5]): Active; Activity (Rattus norvegicus [8]): inactive; Activity (Rattus norvegicus [9]): inactive; Activity (Rattus norvegicus [10]): Active; Activity (Rattus norvegicus [11]): Dose-dependent effect
CCC/C=C/CNC(=O)OCCCc1c[nH]cn1	Active	7080	–	240	–	–
COc1ccc(CN(CCN(C)C)c2ccccn2)cc1	inactive	–	–	–	–	–
O=C(NCCCCC1CCCCC1)OCCCc1c[nH]cn1	Active	5010	4.61	1950	< 5.52	Activity (Rattus norvegicus [6]): Active
S=C(NC1CCCCC1)N1CCC(c2cnc[nH]2)CC1	Active	–	< 5	–	< 5	–
O=C(NCCCC1CCCCC1)OCCCc1c[nH]cn1	–	4470	4.94	851	4.97	–
O=C(NCCc1ccc(Cl)cc1)OCCCc1c[nH]cn1	–	6760	4.41	427	4.82	ED50 (Mus musculus): 3.1 mg/kg
O=C(NCCC1CCCCC1)OCCCc1c[nH]cn1	–	1550	4.49	251	3.96	–
